Data taken from US20170027868A1, “PEPTIDE-[…]” (priority 2015, published 2017).
Read-outs that look alike come from different tables or passages of the source.

Assays:
HDM-2-positive C26 cells = experiment: In vitro cellular binding at 4° C., flow cytometry; assay type: cell-based; details: 20 μg doxorubicin/ml, 1 hour, FIG. 5B
Method: (§1) The exemplary procedure was as follows: cells were detached from cell culture dishes by using 0.05% trypsin and 0.02% EDTA (GIBCO). […] Afterward, the cells were washed three times with PBS and re-suspended in an appropriate volume of the buffer and were analyzed by flow cytometry. BD FACS Calibur equipped was used to read fluorescence signal.

[1] = tested on: HDM-2-negative NIH-3T3 cells; experiment: In vitro cellular binding at 4° C., flow cytometry; assay type: cell-based, mouse; details: NIH3T3 cells, 20 μg doxorubicin/ml, 1 hour, FIG. 5A
Method: as §1

C26 cells [2] = experiment: In vitro cellular uptake at 37° C., flow cytometry; assay type: cell-based; details: 20 μg doxorubicin/ml, 3 hours, FIG. 6B
Method: (§2) For evaluating in vitro cellular uptake, NIH3T3 cells were seeded in complete DMEM and C26 were seeded in complete RPMI in 24-well plates (2×10^5 cells/well). […] Then, cells were washed with PBS, detached by 100 μl of trypsin-EDTA solution (Gibco, UK) and centrifuged at 1500 rpm for 5 minutes. The cells were washed with cold PBS three times and resuspended in staining buffer before analysis. […] Then 0.9 ml of an acidified isopropanol was added to each well, and the mixture was incubated overnight at 4° C. to extract the cell-associated doxorubicin. After sedimentation of the cell debris, doxorubicin concentration was measured.
(§3) Referring to FIGS. 6A and 6B, the geometric mean fluorescence intensity (MFI) of doxorubicin in cells was analyzed by using flow cytometry (FCM) in the FL2 channel.

[3] = tested on: HDM-2-negative NIH-3T3 cells; details: NIH3T3 cells, 20 μg doxorubicin/ml, 37° C., 3 hours; FIG. 6A
Method: as §2, §3

C26 cells [4] = experiment: cells
Method: At first, C26 cells were seeded in RPMI 1640 media in 96-well plates (5000 cells/well) and were incubated at 37° C. After overnight incubation, cells were treated with different concentration of drug (1:2 serial dilutions of liposomal doxorubicin or free doxorubicin in FCS-free medium) and then incubated at 37° C. for 3 and 6 hours.
After scheduled incubation times, cells were washed with pre-warmed complete culture media and re-incubated further for 48 hours at 37° C. and then the viability of cells was determined by MTT assay; for this purpose, 20 ml of MTT (Thiazolyl Blue Tetrazolium Bromide; Sigma-Aldrich) was added to each well of the plate and was incubated for 4 hours at 37° C.
Relative cell death was calculated as follows: R=(A control−A test)/(A control−A blank) where A test and A control were the absorbance of the cells treated with the test dilutions and the culture medium (negative control). A blank was the absorbance of cell free wells.

[5] = tested on: C-26 colon carcinoma tumor; experiment: In vivo tumor-targeted therapeutic study; details: mice bearing C-26 tumor
Method: Tumor models were C26 colon carcinoma in BALB/c mice Female BALB/c mice 4-6 week's old and female C57BL/6 mice 6-12 weeks old were injected subcutaneously in the right flank with tumor cells.
Also tumor size was monitored three times a week for 60 days. Three dimensions of tumor (height, length and width) were measured with calipers and tumor volume was calculated via the following formula: tumor volume=(height×length×width)×0.5 cm^3. According to instructions for C26 tumor bearing animals, euthanasia was occurred when their body weight decreased (>20% loss of initial mass), their tumor was greater than 2.0 cm in one dimension or they became sick and unable to feed.
The median survival time (MST) and time to reach end point (TTE) for each mouse were calculated from the equation of the line obtained by exponential regression of the tumor growth curve. Subsequently, the percent of tumor growth delay (TGD) were calculated based on the difference between the mean TTE of treatment group (T) and the mean TTE of the control group (C) (% TGD=[(T−C)/C]×100).

[6] = Bio-distribution study in tumor-bearing mice; details: 24 and 48 h; FIG. 8A
Method: Blood samples were collected 3, 6, and 12 hours after drug injection via retro orbital bleeding.
Animals were sacrificed at 24 and 48 h after drug administration and blood samples were drawn by heart puncture. The whole tumor, one of the kidneys, spleen, heart, lungs as well as a portion of the liver and muscle were dissected, weighted and homogenized in acidified isopropanol with zirconia beads by Mini-Beadbeater-1 (Biospec, OK). Then the blood and the homogenized tissue samples were centrifuged and the blood serum as well as the sera of tissue samples were diluted in adequate volume of acidified isopropanol and stored at 4° C. overnight for Doxorubicin extraction.
The samples were centrifuged and the supernatant was assayed for Doxorubicin concentration by measuring fluorescence at λEx/Em=480/590 nm compared with Doxorubicin calibration curves, which were prepared in the tissue and sera extracts of the control mice. The pharmacokinetic concentration of doxorubicin was shown as μg/ml of serum.

[7] = single i.v. dose 15 mg/kg doxorubicin

In the case of COc1cccc2c1C(=O)c1c(O)c3c(c(O)c1C2=O)C[C@@](O)(C(=O)CO)C[C@@H]3O[C@H]1C[C@H](N)[C@H](O)[C@H](C)O1 [Free doxorubicin, doxorubicin], the cellular binding (HDM-2-positive C26 cells) is reported as “more than other forms of drugs”, the cellular binding [1] is reported as “more than other forms of drugs” and the “cellular uptake (MFI of doxorubicin)” value (C26 cells [2]) is reported as “too high”. The “cellular uptake (MFI of doxorubicin)” value [3] was “too high”, the IC50 (C26 cells [4]; C26, read-out: IC50 (μM ± SD), C26 cells, 3 h exposure, then 48 h re-incubation) was 0.625 ± 0.07 µM and the IC50 (C26 cells [4]; C26, read-out: IC50 (μM ± SD), C26 cells, 6 h exposure, then 48 h re-incubation) was 0.302 ± 0.05 µM. The “TGD (tumor growth delay)” value ([5]; 15 mg/kg, [(T−C)/C]×100 of mean TTE) was 24.42%, the “MST (median survival time)” value [5, 7] was 27 days and the “TTE (time to reach end point)” value [5, 7] was 27 days. For the same compound, the bio-distribution in serum [6] was “decreasing trend over time”.
